One data set relates to Chenopodium album. In words: Test Example 4: herbicidal effect by soil treatment (symbol O). The format is in vivo. The conditions noted are these: application herbicide amount 320 g/ha. A digest of the protocol: (§1)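 Seeds were sown in sterilized diluvial soil, covered with about 1.5 cm of soil, and the soil surface was sprayed with a water-diluted emulsion of the compound at a predetermined rate. Plants grew in a greenhouse at 25° C. to 30° C.; effects were scored visually 3 weeks after application.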

In the next data set the test system is soybean. Briefly: Test Example 5: effect on crop by foliage application, plastic box (symbol d). It is filed as in vivo. The conditions noted are these: 320 g/ha, 3 weeks after application. A digest of the protocol:
(§2)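 Plants were raised from seed in a greenhouse (25° C. to 30° C.) after sowing in a plastic box of sterilized diluvial soil.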

The next data set relates to Avena fatua. In words: Test Example 4: herbicidal effect by soil treatment (symbol I). It is filed as in vivo. The conditions noted are these: application herbicide amount 320 g/ha. A digest of the protocol:
as §1

Another data set concerns Abutilon theophrasti. Briefly: Test Example 5: herbicidal effect by foliage application, plastic box (symbol M). The format is in vivo. The conditions noted are these: 320 g/ha, 3 weeks after application. The gist of the method:
(§3)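 Greenhouse foliar test: seedlings at 14 days, grown 25° C. to 30° C. in sterilized diluvial soil; compound applied as an aqueous dilution of an emulsion; response read 3 weeks after spraying.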

A further data set relates to Setaria viridis. In words: Test Example 4: herbicidal effect by soil treatment (symbol G). It is filed as in vivo. Conditions: application herbicide amount 320 g/ha. A digest of the protocol:
as §1

The subject of the next data set is Apera spica-venti. In words: Test Example 5: herbicidal effect by foliage application, plastic box (symbol L). Conditions: 320 g/ha, 3 weeks after application. It is filed as in vivo. A digest of the protocol:
as §3

A further data set deals with rapeseed. Briefly: Test Example 5: effect on crop by foliage application, plastic box (symbol g). It is filed as in vivo. The conditions noted are these: 320 g/ha, 3 weeks after application. A digest of the protocol: as §2
Data set [1] relates to Monochoria vaginalis. In words: Test Example 2: herbicidal activity, application during weed generation in submerged conditions (symbol C). The format is in vivo. Conditions: Table 23; application herbicide amount 320 g/ha; grade 0-5 by criteria of Test Example 1. A digest of the protocol:
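Treatment timing was the one- to two-leaf stage, with diluted emulsifiable compound dropped onto the paddy water (depth 4 cm) over alluvial soil. All three species grew from a mixed sowing in a 25° C. to 30° C. greenhouse. Injury was judged by eye 3 weeks on.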

Data set [2] relates to Echinochloa crus-galli var. crus-galli. Briefly: Test Example 5: herbicidal effect by foliage application, plastic box (symbol H). The format is in vivo. Conditions: 320 g/ha, 3 weeks after application. The gist of the method:
as §3

Data set [3] relates to directly sowed rice plant. In words: Test Example 3: effect on crop by foliage application, Wagner pot (symbol b). The format is in vivo. The conditions noted are these: application herbicide amount 320 g/ha. The gist of the method: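 Alluvial soil in a 1/10000-are Wagner pot was flooded to a water depth of 0.1–0.5 cm. Echinochloa crus-galli var. crus-galli, Leptochloa chinensis, Cyperus difformis and rice were sown into it and grown in a greenhouse at 25–30 °C.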

The subject of the next data set is beet. In words: Test Example 4: effect on crop by soil treatment (symbol f). The conditions noted are these: application herbicide amount 320 g/ha. The format is in vivo. A digest of the protocol: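 Plants are raised in a greenhouse (25° C. to 30° C.) from spot-sown seed, which sits under about 1.5 cm of sterilized diluvial soil in a box shared with weed species.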

The next data set deals with corn. Briefly: Test Example 5: effect on crop by foliage application, plastic box (symbol c). The format is in vivo. The conditions noted are these: 320 g/ha, 3 weeks after application. A digest of the protocol:
as §2

For a further data set, the system named is Veronica persica. In words: Test Example 4: herbicidal effect by soil treatment (symbol R). Conditions: application herbicide amount 320 g/ha. It is filed as in vivo. The gist of the method: as §1
For data set [4], the system named is Monochoria vaginalis. In words: Test Example 1: herbicidal activity, application before weed generation in submerged conditions (symbol C). Conditions: application herbicide amount 320 g/ha. The format is in vivo. A digest of the protocol: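 Greenhouse growth at 25–30 °C lasted 3 weeks after treatment, when each weed was graded 0–5 by herbicidal ratio. Treatment was a diluted emulsion applied to the water surface of 4 cm-submerged alluvial soil on the sowing day.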

The melting point is the temperature, or range, at which the solid turns liquid.

Regarding `Cc1cc(C)c(C2=C(O)CC(CC(=O)c3ccc(F)cc3)C2=O)c(C)c1` (centres unmarked) [2-032], the “O: Chenopodium album, herbicidal effect grade” value (“O: Chenopodium album” below) in the data set with Chenopodium album is given as 0 (Herbicidal ratio of 5% or lower (almost no effect)). Besides, in the data set with soybean, the “d: soybean, effect on crop grade” value is on record as 0 (Herbicidal ratio of 5% or lower (almost no effect)). Further, in the data set on Avena fatua, the “I: Avena fatua, herbicidal effect grade” value is recorded as 0 (Herbicidal ratio of 5% or lower (almost no effect)). Moreover, the “M: Abutilon theophrasti, herbicidal effect grade” value (from here on “M: Abutilon theophrasti”) in the data set with Abutilon theophrasti was 0 (Herbicidal ratio of 5% or lower (almost no effect)). Further, the “G: Setaria viridis, herbicidal effect grade” value (from here on “G: Setaria viridis”) with Setaria viridis is reported as 5 (Herbicidal ratio of 90% or more (almost completely withered)). Also, in the data set on Apera spica-venti, the “L: Apera spica-venti, herbicidal effect grade” value (“L: Apera spica-venti” for short) was 5 (Herbicidal ratio of 90% or more (almost completely withered)). Moreover, the “g: rapeseed, effect on crop grade” value in the data set on rapeseed was 4 (Herbicidal ratio of 70% or higher and lower than 90%). For the same molecule, the “Herbicidal effect grade, C: Monochoria vaginalis” value (shortened to “Herbicidal effect grade, C”) with Monochoria vaginalis [1] is 0 (Herbicidal ratio of 5% or lower (almost no effect)); with Monochoria vaginalis [4] it was 1 (Herbicidal ratio of 5% or higher and lower than 20%). Besides, the “H: Echinochloa crus-galli var. crus-galli, herbicidal effect grade” value in [2] is reported as 5 (Herbicidal ratio of 90% or more (almost completely withered)). The “effect on crop b (directly sowed rice plant), grade 0-5” value (“effect on crop b” below) in data set [3] is recorded as 5 (Herbicidal ratio of 90% or more (almost completely withered)). Further, the “f: beet, effect on crop grade” value in the data set with beet is reported as 0 (Herbicidal ratio of 5% or lower (almost no effect)). The “c: corn, effect on crop grade” value with corn was 1 (Herbicidal ratio of 5% or higher and lower than 20%). In addition, in the data set with Veronica persica, the “R: Veronica persica, herbicidal effect grade” value (from here on “R: Veronica persica”) is 0 (Herbicidal ratio of 5% or lower (almost no effect)).

As to `CCc1cc(Br)cc(C)c1C1=C(O)CC(CC(C)=NOC)C1=O` (centres unmarked) [6-001], the melting point lay in the range of 151 to 153 °C. Further, the “d: soybean, effect on crop grade” value in the data set with soybean is reported as 0 (Herbicidal ratio of 5% or lower (almost no effect)). Besides, in the data set on Avena fatua, the “I: Avena fatua, herbicidal effect grade” value is reported as 5 (Herbicidal ratio of 90% or more (almost completely withered)). For the same molecule, in the data set with Abutilon theophrasti, the “M: Abutilon theophrasti” value is given as 0 (Herbicidal ratio of 5% or lower (almost no effect)). In addition, the “G: Setaria viridis” value with Setaria viridis was 5 (Herbicidal ratio of 90% or more (almost completely withered)). For the same molecule, the “L: Apera spica-venti” value in the data set with Apera spica-venti was 5 (Herbicidal ratio of 90% or more (almost completely withered)). In the data set on rapeseed, the “g: rapeseed, effect on crop grade” value was 2 (Herbicidal ratio of 20% or higher and lower than 40%). Moreover, the “Herbicidal effect grade, C” value in the data set with Monochoria vaginalis [1] is 0 (Herbicidal ratio of 5% or lower (almost no effect)). The “H: Echinochloa crus-galli var. crus-galli, herbicidal effect grade” value in [2] is 5 (Herbicidal ratio of 90% or more (almost completely withered)). For the same molecule, the “effect on crop b” value in data set [3] is 5 (Herbicidal ratio of 90% or more (almost completely withered)). Besides, the “f: beet, effect on crop grade” value in the data set on beet was 0 (Herbicidal ratio of 5% or lower (almost no effect)). Further, in the data set on corn, the “c: corn, effect on crop grade” value is listed as 5 (Herbicidal ratio of 90% or more (almost completely withered)). Besides, the “Herbicidal effect grade, C” value with Monochoria vaginalis [4] is 0 (Herbicidal ratio of 5% or lower (almost no effect)).

For `CCc1cc(Br)cc(C)c1C1=C(O)CC(C(C(=O)OC)C(C)=NOC)C1=O` (centres unmarked) [6-002], the melting point lay in the range of 184 to 188 °C. In the data set on soybean, the “d: soybean, effect on crop grade” value is listed as 0 (Herbicidal ratio of 5% or lower (almost no effect)). In the data set on Avena fatua, the “I: Avena fatua, herbicidal effect grade” value is 0 (Herbicidal ratio of 5% or lower (almost no effect)). Besides, the “M: Abutilon theophrasti” value in the data set on Abutilon theophrasti is 1 (Herbicidal ratio of 5% or higher and lower than 20%). Further, the “G: Setaria viridis” value in the data set on Setaria viridis is 3 (Herbicidal ratio of 40% or higher and lower than 70%). Further, in the data set on Apera spica-venti, the “L: Apera spica-venti” value is 5 (Herbicidal ratio of 90% or more (almost completely withered)). In addition, the “g: rapeseed, effect on crop grade” value with rapeseed was 0 (Herbicidal ratio of 5% or lower (almost no effect)). In addition, the “Herbicidal effect grade, C” value with Monochoria vaginalis [1] is given as 0 (Herbicidal ratio of 5% or lower (almost no effect)). Further, the “H: Echinochloa crus-galli var. crus-galli, herbicidal effect grade” value in [2] is 5 (Herbicidal ratio of 90% or more (almost completely withered)). For the same molecule, the “effect on crop b” value in [3] is listed as 5 (Herbicidal ratio of 90% or more (almost completely withered)). In addition, in the data set on beet, the “f: beet, effect on crop grade” value was 0 (Herbicidal ratio of 5% or lower (almost no effect)). Moreover, the “c: corn, effect on crop grade” value in the data set on corn was 5 (Herbicidal ratio of 90% or more (almost completely withered)). Also, the “Herbicidal effect grade, C” value in the data set with Monochoria vaginalis [4] was 0 (Herbicidal ratio of 5% or lower (almost no effect)).

Consider `CON=C(C)CC1CC(O)=C(c2c(C)cc(C)cc2OC)C1=O` (centres unmarked) [6-037, 3-hydroxy-2-(2-methoxy-4,6-dimethylphenyl)-5-{2-(methoxyimino)propyl}cyclopent-2-enone], for which, in the data set with Chenopodium album, the “O: Chenopodium album” value is listed as 0 (Herbicidal ratio of 5% or lower (almost no effect)). In addition, the “d: soybean, effect on crop grade” value in the data set on soybean was 4 (Herbicidal ratio of 70% or higher and lower than 90%). Further, the “I: Avena fatua, herbicidal effect grade” value in the data set with Avena fatua is reported as 5 (Herbicidal ratio of 90% or more (almost completely withered)). Also, the “M: Abutilon theophrasti” value in the data set on Abutilon theophrasti is recorded as 5 (Herbicidal ratio of 90% or more (almost completely withered)). Moreover, the “G: Setaria viridis” value in the data set with Setaria viridis was 5 (Herbicidal ratio of 90% or more (almost completely withered)). Further, the “L: Apera spica-venti” value in the data set with Apera spica-venti was 5 (Herbicidal ratio of 90% or more (almost completely withered)). Moreover, in the data set with rapeseed, the “g: rapeseed, effect on crop grade” value was 5 (Herbicidal ratio of 90% or more (almost completely withered)). For the same molecule, the “Herbicidal effect grade, C” value with Monochoria vaginalis [1] was 4 (Herbicidal ratio of 70% or higher and lower than 90%); with Monochoria vaginalis [4] it was 4 (Herbicidal ratio of 70% or higher and lower than 90%). Further, in data set [2], the “H: Echinochloa crus-galli var. crus-galli, herbicidal effect grade” value was 5 (Herbicidal ratio of 90% or more (almost completely withered)). For the same molecule, in data set [3], the “effect on crop b” value is listed as 5 (Herbicidal ratio of 90% or more (almost completely withered)). In the data set with beet, the “f: beet, effect on crop grade” value was 0 (Herbicidal ratio of 5% or lower (almost no effect)). Also, in the data set with corn, the “c: corn, effect on crop grade” value was 5 (Herbicidal ratio of 90% or more (almost completely withered)). For the same molecule, in the data set on Veronica persica, the “R: Veronica persica” value is 1 (Herbicidal ratio of 5% or higher and lower than 20%).

Consider `CON=C(C)CC1CC(O)=C(c2c(C)cc(C)cc2Br)C1=O` (centres unmarked) [6-038], for which the “O: Chenopodium album” value with Chenopodium album is listed as 0 (Herbicidal ratio of 5% or lower (almost no effect)). Moreover, the “d: soybean, effect on crop grade” value in the data set on soybean is 4 (Herbicidal ratio of 70% or higher and lower than 90%). For the same molecule, the “I: Avena fatua, herbicidal effect grade” value with Avena fatua is 2 (Herbicidal ratio of 20% or higher and lower than 40%). The “M: Abutilon theophrasti” value in the data set with Abutilon theophrasti is on record as 5 (Herbicidal ratio of 90% or more (almost completely withered)). The “G: Setaria viridis” value with Setaria viridis was 4 (Herbicidal ratio of 70% or higher and lower than 90%). In the data set on Apera spica-venti, the “L: Apera spica-venti” value is reported as 5 (Herbicidal ratio of 90% or more (almost completely withered)). Further, in the data set on rapeseed, the “g: rapeseed, effect on crop grade” value is on record as 5 (Herbicidal ratio of 90% or more (almost completely withered)). Further, the “Herbicidal effect grade, C” value was 1 (Herbicidal ratio of 5% or higher and lower than 20%) with Monochoria vaginalis [1]; 3 (Herbicidal ratio of 40% or higher and lower than 70%) in the data set with Monochoria vaginalis [4]. Also, in data set [2], the “H: Echinochloa crus-galli var. crus-galli, herbicidal effect grade” value is 5 (Herbicidal ratio of 90% or more (almost completely withered)). The “effect on crop b” value in [3] was 5 (Herbicidal ratio of 90% or more (almost completely withered)). The “f: beet, effect on crop grade” value with beet is on record as 0 (Herbicidal ratio of 5% or lower (almost no effect)). Also, in the data set with corn, the “c: corn, effect on crop grade” value was 5 (Herbicidal ratio of 90% or more (almost completely withered)). The “R: Veronica persica” value with Veronica persica was 1 (Herbicidal ratio of 5% or higher and lower than 20%).

Source of the values: patent US11000033B2, “Ketone or oxime compound, and herbicide” (NISSAN CHEMICAL CORPORATION, priority 2014, dated 2021).
